For 21 compounds, IC50 results are on record in patent US12679843B2, “Pyrrolopyrimidine amines as complement inhibitors” (BioCryst Pharmaceuticals, Inc., priority 2020, dated 2026).

Each structure is given as a SMILES string.

The IC50 is the concentration at which inhibition is half-maximal.

Chain of Factor D (P00746 26-253): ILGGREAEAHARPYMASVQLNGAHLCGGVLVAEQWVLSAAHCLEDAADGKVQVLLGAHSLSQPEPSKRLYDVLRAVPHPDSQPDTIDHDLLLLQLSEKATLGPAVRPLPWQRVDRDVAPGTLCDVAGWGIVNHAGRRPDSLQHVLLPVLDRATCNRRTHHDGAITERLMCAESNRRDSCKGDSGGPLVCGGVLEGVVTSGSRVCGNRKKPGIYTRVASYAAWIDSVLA

This assay addresses Factor D (Homo sapiens, UniProt P00746). Description: Factor D esterolytic assay (Z-Lys-SBzl thioester substrate, DTNB, 405 nm). Particulars: substrate Z-Lys-SBzl 1.29 mM, 100 mM HEPES, 500 mM NaCl, pH 7.5, 10% DMSO, tested a minimum of three times. Format: biochemical. As for the experimental part: The IC50 value of a compound (i.e., the concentration of the compound that inhibits 50% of the enzymatic activity) was calculated according to the procedure reported in U.S. Pat. No. 6,653,340 B1, e.g., column 74 (incorporated by reference).
Specifically, the compounds were dissolved in a stock solution of DMSO at 10.0 or 100 mM. A portion of this stock solution was added to assay buffer in a final volume of 50 μL. Controls included buffer alone and enzyme solutions to which DMSO was added. Substrate was added to the reaction wells immediately or after incubation at room temperature. The reaction rates were measured spectrophotometrically by the generation of product at 405 nm for 600 sec. Background absorbance at 690 nm was measured and subtracted from the absorbance at 405 nm for each well.
The reaction rate for enzyme alone was compared to the rate of enzyme in the presence of inhibitor and the percent inhibition was calculated as shown below: Percent Inhibition=[Rate without inhibitor−Rate with inhibitor)/(Rate without inhibitor)]−100 Factor D Esterolytic Assay:
An established esterolytic assay for the measurement of Factor D activity and inhibition of Factor D activity was used (Kam, C. M.; McRae, B. J.; Harper, J. W.; Niemann, M. A.; Volanakis, J. E.; Powers, J. C. Human complement proteins D. C2, and B Active site mapping with peptide thioester substrates. J Biol. Chem. 1987, 262, 3444-3451). For this assay Z-Lys-SBzl, 1.29 mM (Kim, S.; Narayana, S. V. L; Volanakis, J. E. Mutational analysis of the substrate binding site of human complement Factor D. Biochemistry, 1994, 33, 14393-14399) was used as the substrate for Factor D ([…]). Hydrolysis of this compound by Factor D liberated a free sulfhydryl group which is then reacted with 5,5′-dithiobis(2-nitrobenzoic acid) producing an intense yellow color (Habeeb, A. F. S. A. Reaction of protein sulfhydryl groups with Ellman's Reagent. Methods in Enzymol. 1976, 25, 457-464). The assays were performed in 96 well microtiter plates and rates of hydrolysis were monitored at 405 nm on a Biotek Synergy H1 plate reader. Hydrolysis rates were reported as change in mOD/min. The assay was conducted in 100 mM HEPES, 500 mM NaCl, pH 7.5 containing 10% DMSO in a final volume of 50 μL per well.
An IC50, a compound concentration which inhibits 50% of the enzymatic activity, was calculated. Compounds in the examples were tested a minimum of three times.
For the compound `Cc1ncc(-c2cc(C)c3c(c2)c2c(N)ncnc2n3CC(=O)N2[C@H](C(=O)Nc3cccc(Cl)n3)C[C@@]3(C)C[C@@H]23)cn1` [Compound 315a, (1R,3S,5R)-2-(2-(4-amino-8-methyl-6-(2-methylpyrimidin-5-yl)-9H-pyrimido[4,5-b]indol-9-yl)acetyl)-N-(6-chloropyridin-2-yl)-5-methyl-2-azabicyclo[3.1.0]hexane-3-carboxamide], the IC50 was below 100 nM.

On to `Nc1ncnc2c1c1nc(-c3ccccc3)ccc1n2CC(=O)N1[C@@H]2C[C@@H]2C[C@H]1C(=O)Nc1cccc(Br)n1` [Compound 298c, (1R,3S,5R)-2-(2-(4-amino-6-phenyl-9H-pyrido[2′,3′:4,5]pyrrolo[2,3-d]pyrimidin-9-yl)acetyl)-N-(6-bromopyridin-2-yl)-2-azabicyclo[3.1.0]hexane-3-carboxamide], for which the IC50 is below 100 nM. As for `Nc1ncnc2c1ncn2CC(=O)N1[C@@H]2C[C@@H]2C[C@H]1C(=O)Nc1cccc(Br)n1` [Compound 84a, (1R,3S,5R)-2-(2-(6-amino-9H-purin-9-yl)acetyl)-N-(6-bromopyridin-2-yl)-2-azabicyclo[3.1.0]hexane-3-carboxamide], the figure is 100 to 1000 nM; as for `NC(=O)c1ccc2c(c1)c1c(N)ncnc1n2CC(=O)N1[C@@H]2C[C@@H]2C[C@H]1C(=O)Nc1cccc(Br)n1` [Compound 60c, 4-amino-9-(2-((1R,3S,5R)-3-((6-bromopyridin-2-yl)carbamoyl)-2-azabicyclo[3.1.0]hexan-2-yl)-2-oxoethyl)-9H-pyrimido[4,5-b]indole-6-carboxamide], below 100 nM; as for `Cc1cc(C(F)(F)F)nc2c3c(N)ncnc3n(CC(=O)N3[C@@H]4C[C@@H]4C[C@H]3C(=O)Nc3cccc(Br)n3)c12` [Compound 362f, (1R,3S,5R)-2-(2-(4-amino-8-methyl-6-(trifluoromethyl)-9H-pyrido[2′,3′:4,5]pyrrolo[2,3-d]pyrimidin-9-yl)acetyl)-N-(6-bromopyridin-2-yl)-2-azabicyclo[3.1.0]hexane-3-carboxamide], below 100 nM. As for `Nc1ncnc2c1c1ncccc1n2CC(=O)N1[C@@H]2C[C@@H]2C[C@H]1C(=O)Nc1cccc(Br)n1` [Compound 31f, (1R,3S,5R)-2-(2-(4-amino-9H-pyrido[2′,3′:4,5]pyrrolo[2,3-d]pyrimidin-9-yl)acetyl)-N-(6-bromopyridin-2-yl)-2-azabicyclo[3.1.0]hexane-3-carboxamide], the figure is below 100 nM; as for `C[C@@]12C[C@@H](C(=O)Nc3cccc(Cl)n3)N(C(=O)Cn3c4ccc(C(F)(F)F)cc4c4c(N)ncnc43)[C@@H]1C2` [Compound 269c, (1R,3S,5R)-2-(2-(4-amino-6-(trifluoromethyl)-9H-pyrimido[4,5-b]indol-9-yl)acetyl)-N-(6-chloropyridin-2-yl)-5-methyl-2-azabicyclo[3.1.0]hexane-3-carboxamide], below 100 nM; as for `Cc1ccc(Cl)nc1NC(=O)[C@@H]1C[C@@H](F)CN1C(=O)Cn1c2ncnc(N)c2c2cc(C(F)(F)F)cc(C)c21` [Compound 365c, (2S,4R)-1-(2-(4-amino-8-methyl-6-(trifluoromethyl)-9H-pyrimido[4,5-b]indol-9-yl)acetyl)-N-(6-chloro-3-methylpyridin-2-yl)-4-fluoropyrrolidine-2-carboxamide], below 100 nM. Then `Cc1ncc(NC(=O)[C@@H]2C[C@H]3C[C@H]3N2C(=O)Cn2c3ncnc(N)c3c3cc(C(F)(F)F)cc(C)c32)nc1Br` [Compound 313b, (1R,3S,5R)-2-(2-(4-amino-8-methyl-6-(trifluoromethyl)-9H-pyrimido[4,5-b]indol-9-yl)acetyl)-N-(6-bromo-5-methylpyrazin-2-yl)-2-azabicyclo[3.1.0]hexane-3-carboxamide], with below 100 nM. Regarding `Cc1ccc2c(c1)c1c(N)ncnc1n2CC(=O)N1[C@@H]2C[C@@H]2C[C@H]1C(=O)Nc1cccc(Br)n1` [Compound 6e, (1R,3S,5R)-2-(2-(4-amino-6-methyl-9H-pyrimido[4,5-b]indol-9-yl)acetyl)-N-(6-bromopyridin-2-yl)-2-azabicyclo[3.1.0]hexane-3-carboxamide], the IC50 was below 100 nM.

On to `CCOC(=O)CCc1ccc2c(c1)c1c(N)ncnc1n2CC(=O)N1[C@H](C(=O)Nc2cccc(Br)n2)C[C@@]2(C)C[C@@H]12` [Compound 190a, ethyl 3-(4-amino-9-(2-((1R,3S,5R)-3-((6-bromopyridin-2-yl)carbamoyl)-5-methyl-2-azabicyclo[3.1.0]hexan-2-yl)-2-oxoethyl)-9H-pyrimido[4,5-b]indol-6-yl)propanoate], for which the concentration for half-maximal inhibition (IC50) is below 100 nM. Then `NCc1cn(CC(=O)N2C[C@H](F)C[C@H]2C(=O)NCc2cccc(Cl)c2F)c2ncnc(N)c12` [Compound 141a, (2S,4R)-1-(2-(4-amino-5-(aminomethyl)-7H-pyrrolo[2,3-d]pyrimidin-7-yl)acetyl)-N-(3-chloro-2-fluorobenzyl)-4-fluoropyrrolidine-2-carboxamide], with above 1000 nM; and `Cc1ccc2c(n1)c1c(N)ncnc1n2CC(=O)N1[C@H](C(=O)Nc2cccc(Br)n2)C[C@@]2(C)C[C@@H]12` [Compound 286a, (1R,3S,5R)-2-(2-(4-amino-6-methyl-9H-pyrido[2′,3′:4,5]pyrrolo[2,3-d]pyrimidin-9-yl)acetyl)-N-(6-bromopyridin-2-yl)-5-methyl-2-azabicyclo[3.1.0]hexane-3-carboxamide], with below 100 nM. In the case of `Cc1cc(C(F)(F)F)cc2c3c(N)ncnc3n(CC(=O)N3C[C@H](F)C[C@H]3C(=O)Nc3cncc(Br)n3)c12` [Compound 321d, (2S,4R)-1-(2-(4-amino-8-methyl-6-(trifluoromethyl)-9H-pyrimido[4,5-b]indol-9-yl)acetyl)-N-(6-bromopyrazin-2-yl)-4-fluoropyrrolidine-2-carboxamide], the IC50 was below 100 nM. For `Cc1cc(C(F)(F)F)cc2c3c(N)ncnc3n(CC(=O)N3C[C@H](F)C[C@H]3C(=O)Nc3cccc(Cl)n3)c12` [Compound 300a, (2S,4R)-1-(2-(4-amino-8-methyl-6-(trifluoromethyl)-9H-pyrimido[4,5-b]indol-9-yl)acetyl)-N-(6-chloropyridin-2-yl)-4-fluoropyrrolidine-2-carboxamide], the IC50 was below 100 nM.

Turning to `Cc1cc2c(cc1F)c1c(N)ncnc1n2CC(=O)N1[C@H](C(=O)Nc2cccc(Br)n2)C[C@@]2(C)C[C@@H]12` [Compound 382a, (1R,3S,5R)-2-(2-(4-amino-6-fluoro-7-methyl-9H-pyrimido[4,5-b]indol-9-yl)acetyl)-N-(6-bromopyridin-2-yl)-5-methyl-2-azabicyclo[3.1.0]hexane-3-carboxamide], the IC50 is below 100 nM. With `Nc1ncnc2c1c1cccc(F)c1n2CC(=O)N1[C@@H]2C[C@@H]2C[C@H]1C(=O)Nc1cccc(Br)n1` [Compound 51g, (1R,3S,5R)-2-(2-(4-amino-8-fluoro-9H-pyrimido[4,5-b]indol-9-yl)acetyl)-N-(6-bromopyridin-2-yl)-2-azabicyclo[3.1.0]hexane-3-carboxamide], the IC50 was below 100 nM. Then `Nc1cccc2c1ccn2CC(=O)N1[C@@H]2C[C@@H]2C[C@H]1C(=O)Nc1cccc(Br)n1` [Compound 85b, (1R,3S,5R)-2-(2-(4-amino-1H-indol-1-yl)acetyl)-N-(6-bromopyridin-2-yl)-2-azabicyclo[3.1.0]hexane-3-carboxamide], with above 1000 nM; and `Cc1nc(N)c2cnn(CC(=O)N3C[C@H](F)C[C@H]3C(=O)NCc3cccc(Cl)c3F)c2n1` [Compound 142d, (2S,4R)-1-(2-(4-amino-6-methyl-1H-pyrazolo[3,4-d]pyrimidin-1-yl)acetyl)-N-(3-chloro-2-fluorobenzyl)-4-fluoropyrrolidine-2-carboxamide], with above 1000 nM; and `COc1cc(F)cc2c3c(N)ncnc3n(CC(=O)N3[C@H](C(=O)Nc4cccc(Br)n4)C[C@@]4(C)C[C@@H]34)c12` [Compound 281a, (1R,3S,5R)-2-(2-(4-amino-6-fluoro-8-methoxy-9H-pyrimido[4,5-b]indol-9-yl)acetyl)-N-(6-bromopyridin-2-yl)-5-methyl-2-azabicyclo[3.1.0]hexane-3-carboxamide], with below 100 nM. Regarding `COC(=O)c1cc(C)c2c(c1)c1c(N)ncnc1n2CC(=O)N1[C@H](C(=O)Nc2cccc(Br)n2)C[C@@]2(C)C[C@@H]12` [Compound 216g, methyl 4-amino-9-(2-((1R,3S,5R)-3-((6-bromopyridin-2-yl)carbamoyl)-5-methyl-2-azabicyclo[3.1.0]hexan-2-yl)-2-oxoethyl)-8-methyl-9H-pyrimido[4,5-b]indole-6-carboxylate], the half-inhibitory concentration (IC50) is below 100 nM.
